{
  "source": "paper PMC5064002",
  "about": "“Sintokamide A Is a Novel Antagonist of Androgen Receptor That Uniquely Binds Activation Function-1 in Its Amino-terminal Domain” (The Journal of Biological Chemistry, 2016)",
  "key": {"endogenous AR": {"biological_target": "T1, endogenous AR (Homo sapiens, UniProt P10275, T878A)", "T1 construct": "endogenous in cells; host or cells: LNCaP", "T1 sequence (P10275 1-920 T878A)": "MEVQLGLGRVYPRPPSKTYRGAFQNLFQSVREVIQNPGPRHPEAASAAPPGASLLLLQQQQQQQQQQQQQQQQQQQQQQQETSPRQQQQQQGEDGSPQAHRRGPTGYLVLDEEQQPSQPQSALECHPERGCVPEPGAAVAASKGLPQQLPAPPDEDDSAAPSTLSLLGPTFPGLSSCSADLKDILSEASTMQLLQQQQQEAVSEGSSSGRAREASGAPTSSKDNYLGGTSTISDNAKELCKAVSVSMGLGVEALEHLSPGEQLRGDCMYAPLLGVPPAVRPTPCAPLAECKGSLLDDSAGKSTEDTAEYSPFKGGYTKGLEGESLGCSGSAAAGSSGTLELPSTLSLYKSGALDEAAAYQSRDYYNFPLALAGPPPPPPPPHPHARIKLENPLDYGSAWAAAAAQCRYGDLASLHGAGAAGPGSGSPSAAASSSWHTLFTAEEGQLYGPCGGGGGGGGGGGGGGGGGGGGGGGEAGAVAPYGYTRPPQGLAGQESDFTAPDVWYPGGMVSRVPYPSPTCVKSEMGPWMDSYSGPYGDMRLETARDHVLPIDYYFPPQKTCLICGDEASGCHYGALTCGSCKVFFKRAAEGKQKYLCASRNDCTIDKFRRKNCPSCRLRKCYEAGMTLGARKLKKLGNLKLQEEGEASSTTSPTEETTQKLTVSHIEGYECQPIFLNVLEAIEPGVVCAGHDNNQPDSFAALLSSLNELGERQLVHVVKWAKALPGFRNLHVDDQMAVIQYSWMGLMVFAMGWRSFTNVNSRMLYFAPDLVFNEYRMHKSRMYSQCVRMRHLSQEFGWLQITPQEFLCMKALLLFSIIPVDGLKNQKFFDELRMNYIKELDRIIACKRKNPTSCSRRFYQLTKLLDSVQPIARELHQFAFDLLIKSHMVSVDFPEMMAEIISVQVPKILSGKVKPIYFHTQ", "assay": "Steroid receptor specificity: PSA(6.1kb)-luciferase reporter in LNCaP cells", "format": "cell-based", "details": "10 μM compound, 1 nM R1881, 48 h", "quoted_text": "LNCaP cells were transfected with the reporter plasmid PSA(6.1kb)-luciferase, PRE-luciferase, or GRE-luciferase and expression vector for progesterone receptor (PR)-β or glucocorticoid receptor (GR)-α in serum-free, phenol red-free medium using Lipofectin (Invitrogen).\nA, LNCaP cells were transfected with PSA (6.1 kb)-luciferase, PRE-luciferase, or GRE-luciferase reporters and expression vector for PRβ or GRα."}, "AR": {"biological_target": "T2, AR (Homo sapiens, UniProt P10275, T878A)", "T2 construct": "endogenous in cells; host or cells: LNCaP", "T2 sequence (P10275 1-920 T878A)": "T1 sequence (P10275 1-920 T878A)", "assay": "AR-responsive luciferase reporters (PSA (6.1 kb), PB, ARR3) in LNCaP cells, SINT1 and EPI-002 alone or combined", "format": "cell-based", "details": "1 nM R1881 48 h", "description": "LNCaP cells were transfected with AR-responsive PSA (6.1 kb)-luciferase, PB-luciferase, and ARR3-luciferase reporters. Forty-eight hours later, cells were pretreated for 1 h with SINT1 (0–24 μM), EPI-002 (0–31 μM), or a combination with a constant ratio of 1:1.3 for EPI-002/SINT1 concentration. Cells were then incubated with 1 nM R1881 for 48 h, and a luciferase assay was performed. IC50 values for SINT1 for the three reporters were calculated using GraphPad Prism (version 6.01; GraphPad Software). The combination index of SINT1 and EPI-002 was calculated using CalcuSyn software. Combination indices >1, 1, and <1 indicate antagonism, additive affect, and synergy, respectively."}, "[1]": {"system": "FL-AR- and AR-V7-regulated genes", "assay": "AR-FL- and AR-V7-regulated gene expression (quantitative RT-PCR) in LNCaP95 cells", "format": "cell-based", "description": "(§1) At 48 h, total RNA was isolated using a PureLink RNA Mini kit (Invitrogen). For in vivo expression, tumors were harvested 3 days after last treatment, and RNA was extracted using TRIzol. Prior to cDNA generation, 4 μg of RNA were DNase-treated using DNase I (amplification grade; Sigma-Aldrich). DNase-treated RNA was split into two tubes (+RT and −RT), and cDNA was generated using the High Capacity RNA-cDNA kit (Applied Biosystems). Once complete, both reactions were adjusted to 5 ng/μl and stored at −20 °C. Approximately 5 ng of diluted cDNA and gene-specific primers were mixed with Platinum SYBR Green qPCR SuperMix-UDG with ROX (Invitrogen). The transcripts were measured using an ABI PRISM 7900 Sequence Detection System (Invitrogen). For all quantitative RT-PCR experiments, each sample was tested in triplicate, and gene expression levels were normalized to the reference gene RPL13A. Neuron-specific enolase (ENO2) (Gene ID, 2026; pair 1) and synaptophysin (SYP) (Gene ID, 6855; pair 2) human primers were from Sigma Life Science. All other primers were described previously ([4], [9]) and purchased from Integrated DNA Technologies."}, "[2]": {"assay": "Pharmacokinetics in CD-1 mice", "format": "in vivo", "details": "single intravenous dose 50 mg/kg", "description": "Pharmacokinetics assays were performed by NAEJA Pharmaceutical Inc. in a total of 27 CD-1 mice, which received a single intravenous SINT1 dose of 50 mg/kg of body weight. Blood samples were collected during a period of 2.5 min to 8 h postdosing from three mice per time point. Plasma concentrations of SINT1 and pharmacokinetics parameters were determined."}, "[3]": {"assay": "Lability of SINT1 over the course of the studies", "format": "physicochemical", "details": "activity decreased over the course of the studies", "description": "SINT1 is labile, and over the course of completing these studies its activity decreased. […] Therefore, we first evaluated its pharmacokinetics before in vivo studies were carried out to determine dose and route of delivery."}, "LNCaP95 xenografts": {"system": "LNCaP95 xenografts", "assay": "LNCaP95 xenografts in castrated mice", "format": "in vivo, NOD-SCID mice", "description": "as §1\nMale NOD-SCID mice bearing subcutaneous LNCaP or LNCaP95 tumors were castrated when the tumor volume reached ∼100 mm^3. Seven days after castration, animals were injected intratumorally with 30 mg/kg of body weight SINT1 or a matching volume of vehicle (DMSO) every 3 days for a total of 15 days. Animal behavior and body weight were observed throughout the study period for signs of toxicity. Tumor volumes were calculated by the formula length × width × height × 0.5236. Tumors were excised 3 days after the last injection and prepared for immunohistochemistry or gene expression."}, "PC3 cells": {"system": "PC3 cells", "set-up": "method as in PMID 18834139", "details": "cited from earlier work"}, "[4]": {"details": "LNCaP95, 10 μM SINT1, 1 nM R1881 48 h"}, "[5]": {"details": "mice sets 1-3 and mean ± S.D., mean"}},
  "note": "“And” between values parts separate entries of the source, which are not always exact repeats. Equal entries are not always repeated. Where two headings read alike, the source gives them in different places.",
  "data": [
    {"smiles": "CCC(=O)NC(CC(C)C(Cl)(Cl)Cl)C(=O)N1C(=O)C=C(OC)C1CC(C)C(Cl)Cl", "note": "(stereo not shown) [SINT1, Sintokamide A]", "values": [
      {"measurement": "androgen-induced activity of endogenous AR (PSA (6.1 kb)-luciferase)", "setting": "endogenous AR", "result": "significantly inhibited"},
      {"measurement": "IC50", "setting": "AR; IC50, ARR3-Luc", "result": "13.2 ± 1.19", "unit": "µM"},
      {"measurement": "IC50", "setting": "AR; IC50, PB-Luc", "result": "11.6 ± 0.78", "unit": "µM"},
      {"measurement": "IC50", "setting": "AR; IC50, PSA (6.1 kb)-Luc", "result": "10.7 ± 1.55", "unit": "µM"},
      {"measurement": "androgen-induced transcript of FL-AR-regulated gene RHOU", "setting": "[1]; [4]", "result": "exception"},
      {"measurement": "androgen-induced transcripts of FL-AR-regulated genes KLK3/PSA, KLK2, TMPRSS2, NKX3.1, FKBP5 and SLC1A1", "setting": "[1]; [4]", "result": "significantly repressed"},
      {"measurement": "levels of AR-V7 target gene transcripts cyclin A2, CDC20, UBE2C and CDK1", "setting": "[1]; LNCaP95, 10 μM SINT1, 48 h", "result": "significantly repressed"},
      {"measurement": "levels of AR-V7 transcript", "setting": "[1]; LNCaP95, 10 μM SINT1, 48 h", "result": "no significant effect"},
      {"measurement": "levels of FL-AR mRNA", "setting": "[1]; LNCaP95, 10 μM SINT1, 48 h, compared with vehicle control", "result": "did not lead to an increase"},
      {"measurement": "Cmax", "setting": "[2]; CD-1, mouse, plasma, iv, 50 mg/kg, plasma, mice sets 1-3 and mean ± S.D., read-out: Cmax", "result": 3990, "unit": "ng/mL"},
      {"measurement": "AUC(0-inf)", "setting": "[2]; CD-1, mouse, plasma, iv, 50 mg/kg, mice sets 1-3 and mean ± S.D.", "result": 1840, "unit": "ng·h/mL"},
      {"measurement": "clearance", "setting": "[2]; CD-1, mouse, plasma, iv, 50 mg/kg, mice sets 1-3 and mean ± S.D., read-out: Cl (plasma clearance) (converted)", "result": 366, "unit": "mL/min/kg"},
      {"measurement": "Vd", "setting": "[2]; CD-1, mouse, plasma, iv, 50 mg/kg, mice sets 1-3 and mean ± S.D., read-out: Vd (volume of distribution)", "result": 43.7, "unit": "L/kg"},
      {"measurement": "half-life", "setting": "[2]; CD-1, mouse, plasma, iv, 50 mg/kg, mice sets 1-3 and mean ± S.D., read-out: t½ (elimination half-life) (converted)", "result": 1.38, "unit": "h"},
      {"measurement": "Cmax", "setting": "[2]; CD-1, mouse, plasma, iv, 50 mg/kg, read-out: Cmax in plasma", "result": "~8", "unit": "µM"},
      {"measurement": "Cmax", "setting": "[2]; plasma, mice sets 1-3 and mean ± S.D.", "result": "4440 ng/mL and 4030 ng/mL"},
      {"measurement": "Cmax", "setting": "[2]; plasma, mice sets 1-3 and mean ± S.D., mean", "result": "4150 ± 250", "unit": "ng/mL"},
      {"measurement": "AUCinf", "setting": "[2]; mice sets 1-3 and mean ± S.D.", "result": "2370 ng·h/mL and 1510 ng·h/mL"},
      {"measurement": "Cl (plasma clearance)", "setting": "[2]; mice sets 1-3 and mean ± S.D.", "result": "284 mL/min/kg and 446.7 mL/min/kg"},
      {"measurement": "t½ (elimination half-life)", "setting": "[2]; mice sets 1-3 and mean ± S.D.", "result": "1.10 h and 1.01 h"},
      {"measurement": "AUCinf", "setting": "[2]; [5]", "result": "1900 ± 430", "unit": "ng·h/mL"},
      {"measurement": "Cl (plasma clearance)", "setting": "[2]; [5]", "result": "365.5 ± 81.3", "unit": "mL/min/kg"},
      {"measurement": "t½ (elimination half-life)", "setting": "[2]; [5]", "result": "1.16 ± 0.19", "unit": "h"},
      {"measurement": "stability", "setting": "[3]", "result": "labile"},
      {"measurement": "growth of LNCaP95 tumors", "setting": "LNCaP95 xenografts; castrated mice, 30 mg/kg intratumorally every 3 days", "result": "significantly reduce the growth"},
      {"measurement": "levels of expression of ENO2 and SYP genes (neuroendocrine differentiation)", "setting": "LNCaP95 xenografts; harvested LNCaP95 xenografts", "result": "no significant changes"},
      {"measurement": "levels of FL-AR and AR-V7 transcripts in harvested LNCaP95 xenografts", "setting": "LNCaP95 xenografts; tumors harvested 3 days after last treatment", "result": "not significantly altered"},
      {"measurement": "effect on PC3 cells that do not depend on AR for growth and survival", "setting": "PC3 cells", "result": "no effect"}
    ]}
  ]
}
